Values quoted from earlier work, collected in patent US10881613B2, “Fumarate polymersomes” (UCL BUSINESS LTD, priority 2016, dated 2021).

Details: in vivo

## CC(O)CO (stereo not shown) [Propylene glycol]
  half life (metabolized by the liver): 2 h
